Test results as given in patent US20250092056A1, “URACIL DERIVATIVES HAVING VIRUS REPLICATION INHIBITORY ACTIVITY AND PHARMACEUTICAL COMPOSITION COMPRISING THE SAME” (Shionogi & Co., Ltd., priority 2022, published 2025).
Where two headings read alike, the source gives them in different places.

Columns and labels:
SARS-CoV-2 = test: Cytopathic effect (CPE) suppression effect confirmation test using HEK293T/ACE2-TMPRSS2 cells; assay type: cell-based; conditions: Severe acute respiratory syndrome coronavirus 2, HEK-293T
[1] = target: Recombinant SARS-CoV-2 3CL Protease (Severe acute respiratory syndrome coronavirus 2 (2019-nCoV) (SARS-CoV-2), UniProt P0DTD1); test: biochemical; assay type: biochemical; conditions: 50% SARS-CoV-2 3CL protease inhibitory concentration; read-out: IC50
[2] = 50% SARS-CoV-2 infected cell death inhibitory concentration, HEK293T/ACE2-TMPRSS2 cells, read-out: EC50
[3] = 72 h, read-out: EC50 (50% SARS-CoV-2 infected cell death inhibitory concentration), class, HEK293T/ACE2-TMPRSS2 cells, CPE suppression, CellTiter-Glo 2.0 after 3 days culture
[4] = 72 h, read-out: EC50 (50% SARS-CoV-2 infected cell death inhibitory concentration), HEK293T/ACE2-TMPRSS2 cells, CPE suppression, CellTiter-Glo 2.0 after 3 days culture
[5] = 72 h, HEK293T/ACE2-TMPRSS2 cells, CPE suppression, CellTiter-Glo 2.0 after 3 days culture, read-out: EC50 (50% SARS-CoV-2 infected cell death inhibitory concentration), class

N#CCn1c(N2CC(F)C2)c(-c2ccc(F)c(Cl)c2)c(=O)n(-c2cncc(Cl)c2)c1=O [Compound I-309]
EC50 (SARS-CoV-2; [2]): < 100 nM
IC50 [1]: < 10 nM

Cc1cc(-c2c(-c3ccc(F)c(Cl)c3)c(=O)n(-c3cncc(Cl)c3)c(=O)n2CC#N)on1 [Compound I-314]
EC50 (SARS-CoV-2; [2]): < 100 nM
IC50 [1]: < 10 nM

N#CCn1c(N2CC(F)(c3ncccn3)C2)c(-c2ccc(F)c(Cl)c2)c(=O)n(-c2cncc(Cl)c2)c1=O [Compound I-287]
EC50 (SARS-CoV-2; [2]): < 100 nM
IC50 [1]: < 10 nM

N#CCn1c(N2CC(CO)C2)c(-c2ccc(F)c(Cl)c2)c(=O)n(-c2cncc(OCF)n2)c1=O [Compound I-409]
EC50 (SARS-CoV-2; [2]): < 100 nM
IC50 [1]: < 10 nM

N#CCn1c(N2CC(O)C2)c(-c2ccc(F)c(F)c2)c(=O)n(-c2cncc(Cl)c2)c1=O [Compound I-322]
EC50 (SARS-CoV-2; [2]): < 100 nM
IC50 [1]: < 10 nM

COc1cnnc(-n2c(=O)c(-c3ccc(F)c(Cl)c3)c(N3CC4(C3)CC(F)(F)C4)n(CC#N)c2=O)c1 [Compound I-215]
EC50 (SARS-CoV-2; [2]): < 100 nM
IC50 [1]: < 10 nM

Cc1cncc(-n2c(=O)c(-c3ccc(F)c(Cl)c3)c(N3CCC(C(F)(F)F)CC3)n(CC#N)c2=O)n1 [Compound I-199]
EC50 (SARS-CoV-2; [3]): < 100 nM
IC50 [1]: < 10 nM

N#CCn1c(N2CC(c3ccccc3)C2)c(-c2ccc(F)c(Cl)c2)c(=O)n(-c2cncc(Cl)c2)c1=O [Compound I-083]
EC50 (SARS-CoV-2; [3]): < 100 nM
IC50 [1]: < 10 nM

N#CCn1c(N2CCC3(CNC(=O)C3)C2)c(-c2ccc(F)c(Cl)c2)c(=O)n(-c2cncc(Cl)c2)c1=O (racemic) [Compound I-063]
EC50 (SARS-CoV-2; [3]): 100 to 1000 nM
IC50 [1]: < 10 nM

N#CCn1c(N2CC(O)(c3ncccn3)C2)c(-c2ccc(F)c(Cl)c2)c(=O)n(-c2cncc(Cl)c2)c1=O [Compound I-232]
EC50 (SARS-CoV-2; [4]): 6.46 nM
IC50 [1]: 0.86 nM

Cc1cncc(-n2c(=O)c(-c3cc(F)c(F)c(F)c3)c(CCC(C)(C)O)n(CC#N)c2=O)c1 [Compound I-213]
EC50 (SARS-CoV-2; [2]): < 100 nM
IC50 [1]: < 10 nM

N#CCn1c(C2CC2)c(-c2ccc(F)c(Cl)c2)c(=O)n(-c2cncc(Cl)c2)c1=O [Compound I-388]
EC50 (SARS-CoV-2; [2]): < 100 nM
IC50 [1]: < 10 nM

Cc1cncc(-n2c(=O)c(-c3ccc(F)c(Cl)c3)c(N3CCC4(CCNC4=O)CC3)n(CC#N)c2=O)c1 [Compound I-044]
EC50 (SARS-CoV-2; [3]): 100 to 1000 nM
IC50 [1]: < 10 nM

N#CCn1c(N2CC(O)(C(F)F)C2)c(-c2ccc(F)c(Cl)c2)c(=O)n(-c2cncc(C(F)F)n2)c1=O [Compound I-345]
EC50 (SARS-CoV-2; [2]): < 100 nM
IC50 [1]: < 10 nM

Cc1cncc(-n2c(=O)c(-c3ccc(F)c(Cl)c3)c(N3CCC4(CCOC4)C3)n(CC#N)c2=O)c1 (racemic) [Compound I-070]
EC50 (SARS-CoV-2; [3]): < 100 nM
IC50 [1]: < 10 nM

N#CCn1c(N2CCC(C(F)F)CC2)c(-c2ccc(F)c(F)c2)c(=O)n(-c2cncc(Cl)c2)c1=O [Compound I-397]
EC50 (SARS-CoV-2; [2]): < 100 nM
IC50 [1]: < 10 nM

Cc1cncc(-n2c(=O)c(Cc3cc(F)c(F)c(F)c3)c(N3CCC(C#N)C3)n(CC#N)c2=O)c1 (racemic) [Compound I-092]
EC50 (SARS-CoV-2; [5]): < 100 nM
IC50 [1]: 10 to 100 nM

N#CCn1c(N2C[C@@H]3CC[C@H]2C3)c(-c2ccc(F)c(Cl)c2)c(=O)n(-c2cncc(Cl)c2)c1=O (racemic) [Compound I-267]
EC50 (SARS-CoV-2; [2]): < 100 nM
IC50 [1]: < 10 nM

Cc1cncc(-n2c(=O)c(Cc3cc(F)c(F)c(F)c3)c(-c3ccc(C(F)(F)F)c(Cl)c3)n(CC#N)c2=O)c1 [Compound I-031]
EC50 (SARS-CoV-2; [3]): < 100 nM
IC50 [1]: < 10 nM

CC1(O)CC2(CN(c3c(-c4ccc(F)c(Cl)c4)c(=O)n(-c4cnc5cc(Cl)ccn45)c(=O)n3CC#N)C2)C1 [Compound I-138]
EC50 (SARS-CoV-2; [5]): 100 to 1000 nM
IC50 [1]: 10 to 100 nM

COC1CCN(c2c(Cc3cc(F)c(F)c(F)c3)c(=O)n(-c3cncc(C)c3)c(=O)n2CC#N)CC1 [Compound I-106]
EC50 (SARS-CoV-2; [3]): < 100 nM
IC50 [1]: < 10 nM

N#CCn1c(N2CC(C(F)(F)F)C2)c(-c2ccc(F)c(Cl)c2)c(=O)n(-c2cncc(OCF)n2)c1=O [Compound I-421]
EC50 (SARS-CoV-2; [2]): < 100 nM
IC50 [1]: < 10 nM

N#CCn1c(N2CC(N3CCOCC3)C2)c(-c2ccc(F)c(Cl)c2)c(=O)n(-c2cncc(Cl)c2)c1=O [Compound I-085]
EC50 (SARS-CoV-2; [3]): < 100 nM
IC50 [1]: < 10 nM

Cc1cncc(-n2c(=O)c(Oc3ccccc3)c(N3Cc4ccccc4C3)n(CC#N)c2=O)c1 [Compound I-014]
EC50 (SARS-CoV-2; [4]): 17 nM
IC50 [1]: 5.1 nM

Cc1cncc(-n2c(=O)c(Cc3cc(F)c(F)c(F)c3)c(N3C[C@@H]4[C@H](C3)C4(F)F)n(CC#N)c2=O)c1 [Compound I-099]
EC50 (SARS-CoV-2; [5]): < 100 nM

Cc1cncc(-n2c(=O)c(-c3ccc(F)c(Cl)c3)c(-c3ccccc3)n(CC#N)c2=O)c1 [Compound I-268]
EC50 (SARS-CoV-2; [2]): < 100 nM
